A word on the MIC: it is the least concentration at which growth counts as inhibited.

Results on 10 molecules are retold here after US11434241B2, “Pyrimidine derivatives for prevention and treatment of bacterial infections” (UNIVERSITE DE LIEGE, priority 2018, dated 2022).

Values after ≈ are worked out from the molar mass of the structure shown. Read-outs that look alike come from different tables or passages of the source.

For test [1], the system named is methicillin-resistant S. aureus (MRSA) ATCC BAA-1556. Description: MIC determination on methicillin-resistant S. aureus. Format: cell-based, Staphylococcus aureus. The following applies: for antibacterial activity against MRSA (in words): MHB medium; for MIC: Staphylococcus aureus, read-out: MIC MRSA. As to the method: (§1) Further experiments are conducted using different strains of S. aureus, as clinically relevant Gram-positive bacterial strains: S. aureus ATCC 25904, methicillin-resistant S. aureus (MRSA) ATCC BAA-1556, Glycopeptide intermediate-resistant (GISA) S. aureus Mu-50 (ATCC 700695) in order to determine the Minimal Inhibitory Concentration (MIC) which is the minimal concentration required to prevent bacterial growth. The bioluminescent strain S. aureus Xen29 (ATCC 12600) was also used. This strain is derived from the parental strain S. aureus ATCC 12600, a pleural fluid isolate, which is also designated as NCTC8532.
(§2) A single colony selected from the different strains of S. aureus is resuspended and cultured in brain heart infusion (BHI) broth overnight (O/N) in aerobic conditions (37° C. with 220 rpm shaking), next day a 1:100 inoculum in Mueller-Hinton broth (MHB) is incubated in aerobic conditions for 3 hr (=OD0.08-0.1) and an inoculum of 1:300 dilution, corresponding to 3×10^5 CFU/ml, is incubated in presence or absence of different concentrations of the tested molecules in 1% DMSO. After O/N growth the OD of each culture was measured at 600 nm (OD600) in a spectrophotometer (Victor 3-Perkin Elmer). The MIC represents the concentration at which there is no visible growth of bacteria, i.e. ΔOD at 600 nm equal to zero (blank is the medium alone). […] The MIC of molecule 2329 against Glycopeptide intermediate-resistant (GISA) S. aureus Mu-50 (ATCC 700695) is in between 25 and 30 μM, while it is above 50 μM for molecules 2348, 2412, and 2452.
(§3) Further experiments are conducted using different strains of S. aureus, as clinically relevant Gram-positive bacterial strains: methicillin-resistant S. aureus (MRSA) ATCC BAA-1556 and S. aureus Xen29 (Perkin Elmer ATCC 12600).
(§4) To determine the MIC of the above mentioned molecules in MRSA or in Xen29, a single colony of MRSA or Xen29 is resuspended and cultured in brain heart infusion (BHI) broth overnight (O/N) in aerobic conditions (37° C. with 220 rpm shaking), next day a 1:100 inoculum in Mueller-Hinton broth (MHB) is incubated in aerobic conditions for 3 hr (OD=0.08-0.1) and an inoculum of 1:300 dilution, corresponding to 3×10^5 CFU/ml, is incubated in presence or absence of different concentrations of the tested molecules in 1% DMSO. After O/N growth the OD of each culture was measured at 600 nm (OD600) in a spectrophotometer (Victor 3-Perkin Elmer). The MIC represents the concentration at which there is no visible growth of bacteria, i.e. ΔOD at 600 nm equal to zero (blank is the medium alone).
(§5) Molecule 36z has been tested for its potential antibacterial activity by determining its minimal inhibitory concentration (MIC) according to protocols recommended by EUCAST to assess the efficacy of antibiotics against bacterial strains. In brief MIC in MRSA (ATCC BAA-1556) or in Xen29 (Perkin Elmer-ATCC 12600) for 36z (molecule 25 in WO2009/034386) was determined by culturing a single colony of MRSA or Xen29 in brain heart infusion (BHI) broth overnight (O/N) in aerobic conditions (37° C. with 220 rpm shaking), while MIC for MRSE (ATCC 35984) was determined by culturing MRSE in TSB O/N. Next day a 1:100 inoculum in Mueller-Hinton broth (MHB) is incubated in aerobic conditions for 3 hr (OD=0.08-0.1) and an inoculum of 1:300 dilution, corresponding to 3×10^5 CFU/ml, is incubated in presence or absence of different concentrations of the tested molecules in 1% DMSO. After O/N growth the OD of each culture was measured at 600 nm (OD600) in a spectrophotometer (Victor 3-Perkin Elmer). The MIC represents the concentration at which there is no visible growth of bacteria, i.e. ΔOD at 600 nm equal to zero (blank is the medium alone). No antibacterial activity was found against MRSA (ATCC BAA-1556), Xen29 (Perkin Elmer-ATCC 12600 or MRSE (ATCC 35984) strains when the molecule was used at concentrations up to 200 μM.

In test [2] the test system is Staphylococcus epidermidis (ATCC 35984, also known as RP62A or MRSE). As to the kind of experiment: MIC determination on S. epidermidis (EUCAST, OD600 after overnight growth in MHB). To be noted: for MIC: read-out: MIC MRSE. Format: cell-based. The procedure: The Minimal Inhibitory Concentration (MIC) of molecules 2329, 2348, 2412, 2452 and 2461 was determined on Staphylococcus epidermidis (ATCC 35984, also known as RP62A) according to EUCAST (European Committee on Antimicrobial Susceptibility Testing) recommendations.
Briefly, a single colony grown on a Tryptic Soy Agar (TSA) plate was resuspended and cultured in Tryptic Soy Broth (TSB) overnight (O/N) in aerobic conditions (37° C. with 220 rpm shaking), next day a 1:50 inoculum in Mueller-Hinton broth (MHB) was incubated in aerobic conditions for 3 hr and an inoculum of 1:100 dilution, corresponding to 3×10^5 CFU/ml, was incubated in presence or absence of different concentrations of the molecules in 1% DMSO (vehicle). After O/N growth the OD of each culture was measured at 600 nm in a spectrophotometer (OD600). The MIC represents the concentration at which there is no visible growth of bacteria, i.e. ΔOD at 600 nm equal to zero (blank is the medium alone).
The Minimal Inhibitory Concentration (MIC) of pyrazolopyrimidine molecules 2539, 2544, 2666,2676, 2693, 2783, 2784 and 2782 and of purine molecules 2498, 2511, 2525, 2527, 2833, and 2840 was determined on S. epidermidis (ATCC 35984, also known as RP62A or MRSE) according to EUCAST (European Committee on Antimicrobial Susceptibility Testing) recommendations.
Briefly, a single colony grown on an agar plate was resuspended and cultured in Triptic Soy Broth (TSB) medium overnight (O/N) in aerobic conditions (37° C. with 220 rpm shaking), next day a 1:50 inoculum in Mueller-Hinton broth (MHB) was incubated in aerobic conditions for 3 hr (OD=0.08-0.1) and an inoculum of 1:300 dilution, corresponding to 3×10^5 CFU/ml, was incubated in presence or absence of different concentrations of each of the molecules in 1% DMSO (vehicle). After O/N growth the OD of each culture was measured at 600 nm (600) in a spectrophotometer (Victor 3-Perkin Elmer). The MIC represents the concentration at which there is no visible growth of bacteria, i.e. ΔOD at 600 nm equal to zero (where ΔOD is the difference between the OD with the molecule and the OD of the blank, the medium alone).
as §5

Test [3] relates to S. aureus Xen29 (ATCC 12600). Description: MIC determination on bioluminescent S. aureus Xen29. In kind it is cell-based, Staphylococcus aureus. To be noted: for antibacterial activity / inhibition of Xen29 growth (in words): MHB medium; for MIC: Staphylococcus aureus, ATCC12600, read-out: MIC Xen29. The procedure:
as §1, §2, §3, §4, §5

The mark [4] stands for this setting: MHB medium, tested up to 100 μM, hydrochloride.
Where [5] appears, read: Staphylococcus epidermidis, MHB medium, tested up to 100 μM.

In the case of `CCSc1nc(N[C@@H]2C[C@H]2c2ccc(F)c(F)c2)c2cnn(CC)c2n1.Cl` [Molecule 2783, N-((1R,2S)-2-(3,4-difluorophenyl)cyclopropyl)-6-(ethylthio)-1-ethyl-1H-pyrazolo[3,4-d]pyrimidin-4-amine hydrochloride], in test [1], the “antibacterial activity against MRSA (in words)” value is on record as “active”. Further, the MIC in test [1] was 25 µM; in test [2] (setting [4]), greater than 100 µM; in test [2] (Staphylococcus epidermidis) it was greater than 100 µM.
For the molecule `CCCSc1nc(N[C@@H]2C[C@H]2c2ccc(F)c(F)c2)c2cnn(C)c2n1.Cl` [Molecule 2782, N-((1R,2S)-2-(3,4-difluorophenyl)cyclopropyl)-6-(propylthio)-1-methyl-1H-pyrazolo[3,4-d]pyrimidin-4-amine hydrochloride], the “antibacterial activity against MRSA (in words)” value in test [1] is given as “active”. Further, the MIC in test [1] was 25 µM; in test [2] (setting [4]), greater than 100 µM; in test [2] (Staphylococcus epidermidis) it was greater than 100 µM.
On to `CSc1nc(N[C@@H]2C[C@H]2c2ccc(F)c(F)c2)c2cnn(C)c2n1` [Molecule 2539, N-((1R,2S)-2-(3,4-difluorophenyl)cyclopropyl)-1-methyl-6-(methylthio)-1H-pyrazolo[3,4-d]pyrimidin-4-amine], for which, in test [1], the “antibacterial activity against MRSA (in words)” value is “active” and the MIC is 25 µM (≈ 8.68 µg/mL). Also, in test [3], the “antibacterial activity / inhibition of Xen29 growth (in words)” value is “able to inhibit” and the MIC is 30 µM (≈ 10.4 µg/mL). Also, the “antibacterial activity / inhibition of MRSE growth (in words)” value in test [2] (MHB medium) is “able to inhibit MRSE growth”. Further, the MIC in test [2] (setting [5]) worked out at 50 µM (≈ 17.4 µg/mL).
In the case of `CCCCSc1nc(N[C@@H]2C[C@H]2c2ccc(F)c(F)c2)c2ncn(CC)c2n1` [Molecule 2840, 2-(butylthio)-N-((1R,2S)-2-(3,4-difluorophenyl)cyclopropyl)-9-ethyl-9H-purin-6-amine], the “antibacterial activity against MRSA (in words)” value in test [1] is recorded as “active”. Besides, the MIC in test [1] was 50 µM (≈ 20.2 µg/mL); in test [2] (MHB medium, tested up to 100 μM) it was greater than 100 µM; in test [2] (setting [5]), greater than 100 µM.
For the molecule `CCCn1ncc2c(N[C@@H]3C[C@H]3c3ccc(F)c(F)c3)nc(SC)nc21.Cl` [Molecule 2693, N-((1R,2S)-2-(3,4-difluorophenyl)cyclopropyl)-6-(methylthio)-1-propyl-1H-pyrazolo[3,4-d]pyrimidin-4-amine hydrochloride], the “antibacterial activity against MRSA (in words)” value in test [1] was “active”. Also, the MIC in test [1] was 20 µM; in test [3], greater than 100 µM; in test [2] (setting [4]), greater than 100 µM; in test [2] (Staphylococcus epidermidis) it was greater than 100 µM.
Regarding `CSc1nc(N[C@@H]2C[C@H]2c2ccc(F)c(F)c2)c2ncn(C)c2n1` [Molecule 2498, N-((1R,2S)-2-(3,4-difluorophenyl)cyclopropyl)-9-methyl-2-(methylthio)-9H-purin-6-amine], in test [1], the “antibacterial activity against MRSA (in words)” value is “active”. Also, the MIC in test [1] was determined as 30 µM (≈ 10.4 µg/mL); in test [3], 30 µM (≈ 10.4 µg/mL); in test [2] (setting [5]) it was 60 µM (≈ 20.8 µg/mL). In test [3], the “antibacterial activity / inhibition of Xen29 growth (in words)” value is listed as “able to inhibit”. The “antibacterial activity / inhibition of MRSE growth (in words)” value in test [2] (MHB medium) is recorded as “able to inhibit MRSE growth”.
On to `CCSc1nc(N[C@@H]2C[C@H]2c2ccc(F)c(F)c2)c2ncn(CC)c2n1` [Molecule 2527, N-((1R,2S)-2-(3,4-difluorophenyl)cyclopropyl)-9-ethyl-2-(ethylthio)-9H-purin-6-amine], for which, in test [1], the “antibacterial activity against MRSA (in words)” value was “active” and the MIC was determined as 25 µM (≈ 9.39 µg/mL). Besides, in test [3], the “antibacterial activity / inhibition of Xen29 growth (in words)” value is recorded as “able to inhibit” and the MIC worked out at 30 µM (≈ 11.3 µg/mL). Also, the “antibacterial activity / inhibition of MRSE growth (in words)” value in test [2] (MHB medium) is recorded as “able to inhibit MRSE growth”. Moreover, the MIC in test [2] (setting [5]) came out at 25 µM (≈ 9.39 µg/mL).
Turning to `CSc1nc(N[C@@H]2C[C@H]2c2ccc(F)c(F)c2)c2cnn(C(C)C)c2n1.Cl` [Molecule 2676, N-((1R,2S)-2-(3,4-difluorophenyl)cyclopropyl)-1-isopropyl-6-(methylthio)-1H-pyrazolo[3,4-d]pyrimidin-4-amine hydrochloride], the “antibacterial activity against MRSA (in words)” value in test [1] is given as “active”. Moreover, the MIC was 20 µM in test [1], greater than 100 µM in test [3] and 50 µM in test [2] (Staphylococcus epidermidis). Besides, the “antibacterial activity / inhibition of MRSE growth (in words)” value in test [2] (MHB medium) is “able to inhibit MRSE growth”.
In the case of `CCSc1nc(N[C@@H]2C[C@H]2c2ccc(F)c(F)c2)c2ncn(C)c2n1` [Molecule 2525, N-((1R,2S)-2-(3,4-difluorophenyl)cyclopropyl)-2-(ethylthio)-9-methyl-9H-purin-6-amine], in test [1], the “antibacterial activity against MRSA (in words)” value was “active” and the MIC stood at 25 µM (≈ 9.04 µg/mL). Moreover, in test [3], the “antibacterial activity / inhibition of Xen29 growth (in words)” value is “able to inhibit” and the MIC turned out to be 30 µM (≈ 10.8 µg/mL). The “antibacterial activity / inhibition of MRSE growth (in words)” value in test [2] (MHB medium) is reported as “able to inhibit MRSE growth”. Further, in test [2] (setting [5]), the MIC is 40 µM (≈ 14.5 µg/mL).
For the molecule `CCCSc1nc(N[C@@H]2C[C@H]2c2ccc(F)c(F)c2)c2cnn(CC)c2n1.Cl` [Molecule 2784, N-((1R,2S)-2-(3,4-difluorophenyl)cyclopropyl)-6-(propylthio)-1-ethyl-1H-pyrazolo[3,4-d]pyrimidin-4-amine hydrochloride], the “antibacterial activity against MRSA (in words)” value in test [1] is on record as “active”. Also, the MIC in test [1] was 50 µM; in test [2] (setting [4]) it was greater than 100 µM; in test [2] (Staphylococcus epidermidis), greater than 100 µM.
